Data as given in the kinase profiling compilation of Christmann-Franck et al. (2016).

These compounds were tested against AURKA (human) (UniProt O14965) (assay: radiometric filter-binding kinase assay, Kinase HotSpot). Conditions: compound 0.5 µM; ATP 10 µM.
Work on CCN1/C(=C/C(C)=O)Sc2ccc(OC)cc21 yielded a residual activity of 108%.
COc1cc2ncnc(Nc3ccc(F)c(Cl)c3)c2cc1OCCCN1CCOCC1 was tested, and the residual activity was 95.3%.
In the case of C#Cc1cccc(Nc2ncnc3cc(OCCOC)c(OCCOC)cc23)c1, the residual activity is reported as 75.3%.
CCCNC(=O)Nc1ccc(Oc2ncnc3cc(OC)c(OC)cc23)cc1Cl showed a residual activity of 89.2%.

These compounds were tested against CLK2 (human) (UniProt P49760) in the same assay as above. Conditions: compound 0.5 µM; ATP 10 µM.
Sequence of CLK2 (human) (P49760 whole entry, looked up): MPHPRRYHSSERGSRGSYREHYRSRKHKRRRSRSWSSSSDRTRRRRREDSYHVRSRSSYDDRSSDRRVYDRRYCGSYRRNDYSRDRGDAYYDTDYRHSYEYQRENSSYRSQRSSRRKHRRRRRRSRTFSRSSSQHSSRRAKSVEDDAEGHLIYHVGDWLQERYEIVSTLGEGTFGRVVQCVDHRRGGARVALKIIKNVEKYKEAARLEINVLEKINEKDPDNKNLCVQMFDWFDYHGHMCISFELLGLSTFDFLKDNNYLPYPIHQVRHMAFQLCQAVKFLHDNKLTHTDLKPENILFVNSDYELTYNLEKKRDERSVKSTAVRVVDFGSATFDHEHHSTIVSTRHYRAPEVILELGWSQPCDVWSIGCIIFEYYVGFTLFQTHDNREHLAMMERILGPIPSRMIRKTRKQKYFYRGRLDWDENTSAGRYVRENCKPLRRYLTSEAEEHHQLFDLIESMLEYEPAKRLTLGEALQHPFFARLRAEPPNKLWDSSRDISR
CCN1/C(=C/C(C)=O)Sc2ccc(OC)cc21 was tested, and the residual activity was 25.9%.
Compound COc1cc2ncnc(Nc3ccc(F)c(Cl)c3)c2cc1OCCCN1CCOCC1 has a residual activity of 94.8%.
C#Cc1cccc(Nc2ncnc3cc(OCCOC)c(OCCOC)cc23)c1 gave a residual activity of 93.4%.
With Nc1nc(Nc2ccc(S(N)(=O)=O)cc2)nn1C(=O)c1c(F)cccc1F the residual activity was 71.5%.
With CCCNC(=O)Nc1ccc(Oc2ncnc3cc(OC)c(OC)cc23)cc1Cl the residual activity was 89.5%.

These compounds were tested against MAP4K5 (human) (UniProt Q9Y4K4) in the same assay as above. Conditions: compound 0.5 µM; ATP 10 µM.
With CCN1/C(=C/C(C)=O)Sc2ccc(OC)cc21 the residual activity was 92.3%.
In the case of COc1cc2ncnc(Nc3ccc(F)c(Cl)c3)c2cc1OCCCN1CCOCC1, the residual activity is reported as 80%.
For C#Cc1cccc(Nc2ncnc3cc(OCCOC)c(OCCOC)cc23)c1, the residual activity was 95.6%.
Nc1nc(Nc2ccc(S(N)(=O)=O)cc2)nn1C(=O)c1c(F)cccc1F showed a residual activity of 45.3%.
In the case of CCCNC(=O)Nc1ccc(Oc2ncnc3cc(OC)c(OC)cc23)cc1Cl, the residual activity is reported as 54.6%.

The compounds below were run against EPHB4 (human) (UniProt P54760) in the same assay as above. Conditions: compound 0.5 µM; ATP 10 µM.
Sequence of EPHB4 (human) (P54760 whole entry, looked up): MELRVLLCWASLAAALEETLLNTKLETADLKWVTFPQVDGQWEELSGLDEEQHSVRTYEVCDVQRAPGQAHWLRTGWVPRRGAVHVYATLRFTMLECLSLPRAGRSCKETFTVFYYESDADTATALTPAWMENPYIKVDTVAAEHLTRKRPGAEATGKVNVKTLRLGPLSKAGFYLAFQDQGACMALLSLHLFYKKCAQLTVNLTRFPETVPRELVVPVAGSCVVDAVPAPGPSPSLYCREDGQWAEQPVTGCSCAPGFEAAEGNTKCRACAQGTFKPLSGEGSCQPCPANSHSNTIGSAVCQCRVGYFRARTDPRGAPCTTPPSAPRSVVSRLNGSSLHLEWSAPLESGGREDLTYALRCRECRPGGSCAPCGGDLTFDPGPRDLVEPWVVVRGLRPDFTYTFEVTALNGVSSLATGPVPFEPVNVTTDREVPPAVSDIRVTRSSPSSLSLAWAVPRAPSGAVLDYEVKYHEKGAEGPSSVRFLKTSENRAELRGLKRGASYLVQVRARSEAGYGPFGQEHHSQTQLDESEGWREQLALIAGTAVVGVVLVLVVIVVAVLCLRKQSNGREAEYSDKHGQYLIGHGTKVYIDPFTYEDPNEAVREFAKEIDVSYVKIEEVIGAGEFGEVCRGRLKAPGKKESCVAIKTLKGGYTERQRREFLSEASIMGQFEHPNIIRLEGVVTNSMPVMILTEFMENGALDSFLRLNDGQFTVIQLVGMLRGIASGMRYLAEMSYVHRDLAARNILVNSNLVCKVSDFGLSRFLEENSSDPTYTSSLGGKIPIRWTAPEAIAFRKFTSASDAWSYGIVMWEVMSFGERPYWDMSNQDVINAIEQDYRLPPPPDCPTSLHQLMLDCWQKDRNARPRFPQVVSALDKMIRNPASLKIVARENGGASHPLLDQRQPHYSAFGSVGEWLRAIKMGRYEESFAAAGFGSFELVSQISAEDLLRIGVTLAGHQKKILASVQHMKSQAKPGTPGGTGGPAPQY
Compound CCN1/C(=C/C(C)=O)Sc2ccc(OC)cc21 has a residual activity of 92.4%.
For Nc1nc(Nc2ccc(S(N)(=O)=O)cc2)nn1C(=O)c1c(F)cccc1F, the residual activity was 81%.
With CCCNC(=O)Nc1ccc(Oc2ncnc3cc(OC)c(OC)cc23)cc1Cl the residual activity was 89.4%.

These compounds were tested against TGFBR1 (human) (UniProt P36897) in the same assay as above. Conditions: compound 0.5 µM; ATP 10 µM.
Sequence of TGFBR1 (human) (P36897 whole entry, looked up): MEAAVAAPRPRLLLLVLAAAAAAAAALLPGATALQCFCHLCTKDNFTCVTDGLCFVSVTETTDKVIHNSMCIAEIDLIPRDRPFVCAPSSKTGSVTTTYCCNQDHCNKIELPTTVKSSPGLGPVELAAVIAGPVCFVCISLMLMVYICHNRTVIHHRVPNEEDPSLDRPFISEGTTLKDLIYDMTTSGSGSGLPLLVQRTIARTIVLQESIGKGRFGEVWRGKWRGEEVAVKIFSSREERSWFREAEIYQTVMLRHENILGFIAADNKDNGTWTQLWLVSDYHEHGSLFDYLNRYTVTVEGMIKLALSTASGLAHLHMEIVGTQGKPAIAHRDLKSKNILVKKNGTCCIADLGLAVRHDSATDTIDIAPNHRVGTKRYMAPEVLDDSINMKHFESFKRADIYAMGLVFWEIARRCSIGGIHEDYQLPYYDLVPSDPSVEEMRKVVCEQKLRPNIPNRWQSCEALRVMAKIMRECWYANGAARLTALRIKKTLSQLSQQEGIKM
Work on CCN1/C(=C/C(C)=O)Sc2ccc(OC)cc21 yielded a residual activity of 94.2%.
In the case of COc1cc2ncnc(Nc3ccc(F)c(Cl)c3)c2cc1OCCCN1CCOCC1, the residual activity is reported as 99.6%.
For C#Cc1cccc(Nc2ncnc3cc(OCCOC)c(OCCOC)cc23)c1, the residual activity was 99.1%.
Work on Nc1nc(Nc2ccc(S(N)(=O)=O)cc2)nn1C(=O)c1c(F)cccc1F yielded a residual activity of 104%.
For CCCNC(=O)Nc1ccc(Oc2ncnc3cc(OC)c(OC)cc23)cc1Cl, the residual activity was 102%.

The compounds below were run against PRKCH (human) (UniProt P24723) in the same assay as above. Conditions: compound 0.5 µM; ATP 10 µM.
For CCN1/C(=C/C(C)=O)Sc2ccc(OC)cc21, the residual activity was 88.1%.
C#Cc1cccc(Nc2ncnc3cc(OCCOC)c(OCCOC)cc23)c1 showed a residual activity of 116%.
Nc1nc(Nc2ccc(S(N)(=O)=O)cc2)nn1C(=O)c1c(F)cccc1F gave a residual activity of 100%.
CCCNC(=O)Nc1ccc(Oc2ncnc3cc(OC)c(OC)cc23)cc1Cl showed a residual activity of 101%.

What follows are compounds tested against CDK5 CDK5R1 p35 (human) (UniProt Q00535+Q15078) in the same assay as above. Conditions: compound 0.5 µM; ATP 10 µM.
With CCN1/C(=C/C(C)=O)Sc2ccc(OC)cc21 the residual activity was 91.1%.
Compound COc1cc2ncnc(Nc3ccc(F)c(Cl)c3)c2cc1OCCCN1CCOCC1 has a residual activity of 103%.
In the case of C#Cc1cccc(Nc2ncnc3cc(OCCOC)c(OCCOC)cc23)c1, the residual activity is reported as 108%.
For Nc1nc(Nc2ccc(S(N)(=O)=O)cc2)nn1C(=O)c1c(F)cccc1F, the residual activity was 0.212%.
Work on CCCNC(=O)Nc1ccc(Oc2ncnc3cc(OC)c(OC)cc23)cc1Cl yielded a residual activity of 98%.

The compounds below were run against PDPK1 (human) (UniProt O15530) in the same assay as above. Conditions: compound 0.5 µM; ATP 10 µM.
With CCN1/C(=C/C(C)=O)Sc2ccc(OC)cc21 the residual activity was 97.5%.
For COc1cc2ncnc(Nc3ccc(F)c(Cl)c3)c2cc1OCCCN1CCOCC1, the residual activity was 88.2%.
For C#Cc1cccc(Nc2ncnc3cc(OCCOC)c(OCCOC)cc23)c1, the residual activity was 83.8%.
Nc1nc(Nc2ccc(S(N)(=O)=O)cc2)nn1C(=O)c1c(F)cccc1F showed a residual activity of 92.3%.
CCCNC(=O)Nc1ccc(Oc2ncnc3cc(OC)c(OC)cc23)cc1Cl was tested, and the residual activity was 86.8%.

Each compound was assayed against PRKCA (human) (UniProt P17252) in the same assay as above. Conditions: compound 0.5 µM; ATP 10 µM.
Compound CCN1/C(=C/C(C)=O)Sc2ccc(OC)cc21 has a residual activity of 68.7%.
COc1cc2ncnc(Nc3ccc(F)c(Cl)c3)c2cc1OCCCN1CCOCC1 gave a residual activity of 93.6%.
Compound C#Cc1cccc(Nc2ncnc3cc(OCCOC)c(OCCOC)cc23)c1 has a residual activity of 88.6%.
In the case of Nc1nc(Nc2ccc(S(N)(=O)=O)cc2)nn1C(=O)c1c(F)cccc1F, the residual activity is reported as 55.7%.
Compound CCCNC(=O)Nc1ccc(Oc2ncnc3cc(OC)c(OC)cc23)cc1Cl has a residual activity of 99.3%.

What follows are compounds tested against PLK3 (human) (UniProt Q9H4B4) in the same assay as above. Conditions: compound 0.5 µM; ATP 10 µM.
With CCN1/C(=C/C(C)=O)Sc2ccc(OC)cc21 the residual activity was 99.4%.
In the case of COc1cc2ncnc(Nc3ccc(F)c(Cl)c3)c2cc1OCCCN1CCOCC1, the residual activity is reported as 103%.
Compound C#Cc1cccc(Nc2ncnc3cc(OCCOC)c(OCCOC)cc23)c1 has a residual activity of 102%.
With Nc1nc(Nc2ccc(S(N)(=O)=O)cc2)nn1C(=O)c1c(F)cccc1F the residual activity was 91.3%.
Work on CCCNC(=O)Nc1ccc(Oc2ncnc3cc(OC)c(OC)cc23)cc1Cl yielded a residual activity of 95%.

The compounds below were run against RPS6KA3 KD1 KD2 (human) (UniProt P51812) in the same assay as above. Conditions: compound 0.5 µM; ATP 10 µM.
For CCN1/C(=C/C(C)=O)Sc2ccc(OC)cc21, the residual activity was 102%.
With COc1cc2ncnc(Nc3ccc(F)c(Cl)c3)c2cc1OCCCN1CCOCC1 the residual activity was 100%.
C#Cc1cccc(Nc2ncnc3cc(OCCOC)c(OCCOC)cc23)c1 showed a residual activity of 100%.
Compound Nc1nc(Nc2ccc(S(N)(=O)=O)cc2)nn1C(=O)c1c(F)cccc1F has a residual activity of 38.6%.
With CCCNC(=O)Nc1ccc(Oc2ncnc3cc(OC)c(OC)cc23)cc1Cl the residual activity was 94.9%.

The compounds below were run against FGFR1 (human) (UniProt P11362) in the same assay as above. Conditions: compound 0.5 µM; ATP 10 µM.
Compound COc1cc2ncnc(Nc3ccc(F)c(Cl)c3)c2cc1OCCCN1CCOCC1 has a residual activity of 96.4%.
With C#Cc1cccc(Nc2ncnc3cc(OCCOC)c(OCCOC)cc23)c1 the residual activity was 99.1%.
For CCCNC(=O)Nc1ccc(Oc2ncnc3cc(OC)c(OC)cc23)cc1Cl, the residual activity was 75.4%.

These compounds were tested against INSR (human) (UniProt P06213) in the same assay as above. Conditions: compound 0.5 µM; ATP 10 µM.
For CCN1/C(=C/C(C)=O)Sc2ccc(OC)cc21, the residual activity was 101%.
With COc1cc2ncnc(Nc3ccc(F)c(Cl)c3)c2cc1OCCCN1CCOCC1 the residual activity was 107%.
For C#Cc1cccc(Nc2ncnc3cc(OCCOC)c(OCCOC)cc23)c1, the residual activity was 102%.
With Nc1nc(Nc2ccc(S(N)(=O)=O)cc2)nn1C(=O)c1c(F)cccc1F the residual activity was 94.9%.
CCCNC(=O)Nc1ccc(Oc2ncnc3cc(OC)c(OC)cc23)cc1Cl gave a residual activity of 92.4%.

These compounds were tested against PHKG1 (human) (UniProt Q16816) in the same assay as above. Conditions: compound 0.5 µM; ATP 10 µM.
Sequence of PHKG1 (human) (Q16816 whole entry, looked up): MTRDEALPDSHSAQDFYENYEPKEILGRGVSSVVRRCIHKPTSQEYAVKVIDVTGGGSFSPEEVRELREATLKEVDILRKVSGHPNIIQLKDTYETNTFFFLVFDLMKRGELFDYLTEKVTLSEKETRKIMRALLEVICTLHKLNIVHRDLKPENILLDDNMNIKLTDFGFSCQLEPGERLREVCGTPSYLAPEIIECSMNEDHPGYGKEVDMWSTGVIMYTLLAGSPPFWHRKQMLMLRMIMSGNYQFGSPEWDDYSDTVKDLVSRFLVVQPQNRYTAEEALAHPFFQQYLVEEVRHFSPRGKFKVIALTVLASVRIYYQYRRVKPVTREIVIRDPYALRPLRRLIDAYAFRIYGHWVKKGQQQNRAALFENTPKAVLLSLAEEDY
CCN1/C(=C/C(C)=O)Sc2ccc(OC)cc21 was tested, and the residual activity was 89.5%.
COc1cc2ncnc(Nc3ccc(F)c(Cl)c3)c2cc1OCCCN1CCOCC1 was tested, and the residual activity was 68.8%.
C#Cc1cccc(Nc2ncnc3cc(OCCOC)c(OCCOC)cc23)c1 showed a residual activity of 93.2%.
Nc1nc(Nc2ccc(S(N)(=O)=O)cc2)nn1C(=O)c1c(F)cccc1F showed a residual activity of 102%.
CCCNC(=O)Nc1ccc(Oc2ncnc3cc(OC)c(OC)cc23)cc1Cl was tested, and the residual activity was 91.3%.

Each compound was assayed against EPHA8 (human) (UniProt P29322) in the same assay as above. Conditions: compound 0.5 µM; ATP 10 µM.
Sequence of EPHA8 (human) (P29322 whole entry, looked up): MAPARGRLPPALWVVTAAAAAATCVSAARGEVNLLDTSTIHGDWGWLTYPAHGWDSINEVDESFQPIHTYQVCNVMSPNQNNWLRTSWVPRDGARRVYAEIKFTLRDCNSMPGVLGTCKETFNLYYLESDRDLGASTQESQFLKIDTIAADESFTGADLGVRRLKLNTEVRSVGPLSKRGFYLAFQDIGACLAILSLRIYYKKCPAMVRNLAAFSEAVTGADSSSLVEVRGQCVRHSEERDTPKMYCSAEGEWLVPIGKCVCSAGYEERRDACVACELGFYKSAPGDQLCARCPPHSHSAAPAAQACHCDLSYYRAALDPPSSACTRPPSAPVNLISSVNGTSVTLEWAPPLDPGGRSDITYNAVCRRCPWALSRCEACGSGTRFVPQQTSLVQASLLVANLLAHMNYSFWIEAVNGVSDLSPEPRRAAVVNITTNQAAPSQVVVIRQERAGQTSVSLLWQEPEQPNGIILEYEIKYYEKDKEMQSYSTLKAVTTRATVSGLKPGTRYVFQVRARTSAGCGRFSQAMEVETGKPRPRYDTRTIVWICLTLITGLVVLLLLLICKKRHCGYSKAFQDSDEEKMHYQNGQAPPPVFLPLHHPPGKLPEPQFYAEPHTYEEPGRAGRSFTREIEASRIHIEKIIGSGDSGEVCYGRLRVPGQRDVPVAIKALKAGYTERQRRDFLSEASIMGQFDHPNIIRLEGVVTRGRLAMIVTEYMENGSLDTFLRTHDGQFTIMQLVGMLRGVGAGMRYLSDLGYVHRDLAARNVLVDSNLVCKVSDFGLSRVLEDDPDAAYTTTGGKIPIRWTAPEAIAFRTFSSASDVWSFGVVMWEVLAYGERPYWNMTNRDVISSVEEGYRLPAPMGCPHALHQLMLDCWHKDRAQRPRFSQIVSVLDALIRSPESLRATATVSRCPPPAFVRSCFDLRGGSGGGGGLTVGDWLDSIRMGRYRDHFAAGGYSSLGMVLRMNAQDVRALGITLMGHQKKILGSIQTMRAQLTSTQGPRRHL
In the case of CCN1/C(=C/C(C)=O)Sc2ccc(OC)cc21, the residual activity is reported as 98.5%.
With COc1cc2ncnc(Nc3ccc(F)c(Cl)c3)c2cc1OCCCN1CCOCC1 the residual activity was 84.5%.
In the case of C#Cc1cccc(Nc2ncnc3cc(OCCOC)c(OCCOC)cc23)c1, the residual activity is reported as 89.7%.
Nc1nc(Nc2ccc(S(N)(=O)=O)cc2)nn1C(=O)c1c(F)cccc1F gave a residual activity of 109%.
CCCNC(=O)Nc1ccc(Oc2ncnc3cc(OC)c(OC)cc23)cc1Cl was tested, and the residual activity was 105%.

These compounds were tested against WNK2 (human) (UniProt Q9Y3S1) in the same assay as above. Conditions: compound 0.5 µM; ATP 10 µM.
CCN1/C(=C/C(C)=O)Sc2ccc(OC)cc21 gave a residual activity of 91.1%.
COc1cc2ncnc(Nc3ccc(F)c(Cl)c3)c2cc1OCCCN1CCOCC1 gave a residual activity of 97.2%.
For Nc1nc(Nc2ccc(S(N)(=O)=O)cc2)nn1C(=O)c1c(F)cccc1F, the residual activity was 116%.
Compound CCCNC(=O)Nc1ccc(Oc2ncnc3cc(OC)c(OC)cc23)cc1Cl has a residual activity of 100%.

The compounds below were run against MUSK (human) (UniProt O15146) in the same assay as above. Conditions: compound 0.5 µM; ATP 10 µM.
Sequence of MUSK (human) (O15146 whole entry, looked up): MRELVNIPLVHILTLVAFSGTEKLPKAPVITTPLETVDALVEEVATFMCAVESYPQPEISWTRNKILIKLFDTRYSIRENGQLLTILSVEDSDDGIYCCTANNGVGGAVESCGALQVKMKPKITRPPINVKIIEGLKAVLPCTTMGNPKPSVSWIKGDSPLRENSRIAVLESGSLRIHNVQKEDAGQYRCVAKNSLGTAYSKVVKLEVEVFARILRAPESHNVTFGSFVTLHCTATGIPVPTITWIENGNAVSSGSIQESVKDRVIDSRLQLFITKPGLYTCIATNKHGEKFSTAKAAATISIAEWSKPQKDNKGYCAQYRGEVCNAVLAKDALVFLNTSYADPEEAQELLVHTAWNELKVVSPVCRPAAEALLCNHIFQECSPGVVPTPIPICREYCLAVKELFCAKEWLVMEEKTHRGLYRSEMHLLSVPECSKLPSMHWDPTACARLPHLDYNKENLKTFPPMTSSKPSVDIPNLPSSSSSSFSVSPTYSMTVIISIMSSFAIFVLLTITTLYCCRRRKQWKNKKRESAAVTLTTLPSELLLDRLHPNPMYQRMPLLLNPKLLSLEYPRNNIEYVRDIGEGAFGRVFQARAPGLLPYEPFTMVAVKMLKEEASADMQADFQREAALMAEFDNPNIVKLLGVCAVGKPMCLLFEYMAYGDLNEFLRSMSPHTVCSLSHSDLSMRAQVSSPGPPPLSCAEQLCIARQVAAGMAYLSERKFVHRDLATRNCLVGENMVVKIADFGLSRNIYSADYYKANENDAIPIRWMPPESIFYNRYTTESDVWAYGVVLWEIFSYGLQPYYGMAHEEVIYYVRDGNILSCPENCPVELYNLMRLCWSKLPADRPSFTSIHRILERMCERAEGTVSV
CCN1/C(=C/C(C)=O)Sc2ccc(OC)cc21 showed a residual activity of 28.4%.
Compound COc1cc2ncnc(Nc3ccc(F)c(Cl)c3)c2cc1OCCCN1CCOCC1 has a residual activity of 98.1%.
C#Cc1cccc(Nc2ncnc3cc(OCCOC)c(OCCOC)cc23)c1 was tested, and the residual activity was 94.6%.
For Nc1nc(Nc2ccc(S(N)(=O)=O)cc2)nn1C(=O)c1c(F)cccc1F, the residual activity was 83.1%.
For CCCNC(=O)Nc1ccc(Oc2ncnc3cc(OC)c(OC)cc23)cc1Cl, the residual activity was 101%.

The compounds below were run against FRK (human) (UniProt P42685) in the same assay as above. Conditions: compound 0.5 µM; ATP 10 µM.
CCN1/C(=C/C(C)=O)Sc2ccc(OC)cc21 showed a residual activity of 99.5%.
With COc1cc2ncnc(Nc3ccc(F)c(Cl)c3)c2cc1OCCCN1CCOCC1 the residual activity was 97.9%.
Work on C#Cc1cccc(Nc2ncnc3cc(OCCOC)c(OCCOC)cc23)c1 yielded a residual activity of 102%.
Nc1nc(Nc2ccc(S(N)(=O)=O)cc2)nn1C(=O)c1c(F)cccc1F was tested, and the residual activity was 90.9%.
For CCCNC(=O)Nc1ccc(Oc2ncnc3cc(OC)c(OC)cc23)cc1Cl, the residual activity was 87.2%.

These compounds were tested against MAPK14 (human) (UniProt Q16539) in the same assay as above. Conditions: compound 0.5 µM; ATP 10 µM.
CCN1/C(=C/C(C)=O)Sc2ccc(OC)cc21 showed a residual activity of 95.4%.
In the case of COc1cc2ncnc(Nc3ccc(F)c(Cl)c3)c2cc1OCCCN1CCOCC1, the residual activity is reported as 74.6%.
C#Cc1cccc(Nc2ncnc3cc(OCCOC)c(OCCOC)cc23)c1 showed a residual activity of 95.3%.
For Nc1nc(Nc2ccc(S(N)(=O)=O)cc2)nn1C(=O)c1c(F)cccc1F, the residual activity was 97.8%.
CCCNC(=O)Nc1ccc(Oc2ncnc3cc(OC)c(OC)cc23)cc1Cl was tested, and the residual activity was 122%.

The compounds below were run against PLK2 (human) (UniProt Q9NYY3) in the same assay as above. Conditions: compound 0.5 µM; ATP 10 µM.
For CCN1/C(=C/C(C)=O)Sc2ccc(OC)cc21, the residual activity was 100%.
With COc1cc2ncnc(Nc3ccc(F)c(Cl)c3)c2cc1OCCCN1CCOCC1 the residual activity was 100%.
Compound C#Cc1cccc(Nc2ncnc3cc(OCCOC)c(OCCOC)cc23)c1 has a residual activity of 104%.
Work on Nc1nc(Nc2ccc(S(N)(=O)=O)cc2)nn1C(=O)c1c(F)cccc1F yielded a residual activity of 94.2%.
Work on CCCNC(=O)Nc1ccc(Oc2ncnc3cc(OC)c(OC)cc23)cc1Cl yielded a residual activity of 104%.

These compounds were tested against FES (human) (UniProt P07332) in the same assay as above. Conditions: compound 0.5 µM; ATP 10 µM.
Sequence of FES (human) (P07332 whole entry, looked up): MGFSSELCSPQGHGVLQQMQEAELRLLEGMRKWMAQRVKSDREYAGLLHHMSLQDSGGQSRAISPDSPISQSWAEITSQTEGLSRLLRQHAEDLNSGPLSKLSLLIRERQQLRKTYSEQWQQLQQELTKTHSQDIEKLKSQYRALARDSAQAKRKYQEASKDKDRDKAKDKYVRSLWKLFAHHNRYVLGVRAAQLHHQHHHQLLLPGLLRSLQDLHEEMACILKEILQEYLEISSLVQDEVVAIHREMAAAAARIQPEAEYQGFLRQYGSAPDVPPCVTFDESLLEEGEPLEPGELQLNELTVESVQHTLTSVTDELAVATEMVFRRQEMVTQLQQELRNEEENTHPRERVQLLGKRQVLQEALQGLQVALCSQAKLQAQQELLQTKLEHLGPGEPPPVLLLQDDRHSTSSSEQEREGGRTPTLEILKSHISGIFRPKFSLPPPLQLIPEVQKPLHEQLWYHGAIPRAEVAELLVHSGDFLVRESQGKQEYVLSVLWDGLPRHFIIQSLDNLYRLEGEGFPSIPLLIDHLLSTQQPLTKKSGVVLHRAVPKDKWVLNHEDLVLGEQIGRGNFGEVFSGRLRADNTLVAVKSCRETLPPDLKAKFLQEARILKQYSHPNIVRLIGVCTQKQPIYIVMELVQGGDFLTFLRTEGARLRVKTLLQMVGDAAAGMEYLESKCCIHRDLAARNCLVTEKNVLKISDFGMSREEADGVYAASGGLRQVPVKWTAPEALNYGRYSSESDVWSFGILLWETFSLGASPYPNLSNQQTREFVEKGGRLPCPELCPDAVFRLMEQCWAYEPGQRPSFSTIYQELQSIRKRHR
CCN1/C(=C/C(C)=O)Sc2ccc(OC)cc21 gave a residual activity of 101%.
Work on C#Cc1cccc(Nc2ncnc3cc(OCCOC)c(OCCOC)cc23)c1 yielded a residual activity of 105%.
For CCCNC(=O)Nc1ccc(Oc2ncnc3cc(OC)c(OC)cc23)cc1Cl, the residual activity was 96%.
